Measurements published in patent publication US20230256039A1, “COMPOSITIONS AND METHODS TO INCREASE PRODUCTION OF HYDROXYTYROSOL” (priority 2022, published 2023).

Tests used:
[1] = system: Lactobacillus pentosus strain OL79; assay: Minimum inhibitory concentration (MIC) antibiotic susceptibility of strain OL79; type: cell-based; details: MIC of antibiotic against strain OL79 versus EFSA cutoff
[2] = system: Lactobacillus pentosus strain OL79; details: MIC cutoff values for Lactobacillus pentosus strain OL79; cited from earlier work

Compound	Susceptibility [1]	EFSA Break Point [2] [mg/L]
CC1(C)S[C@@H]2[C@H](NC(=O)[C@H](N)c3ccccc3)C(=O)N2[C@H]1C(=O)O [Ampicillin]	sensitive	2
O=C(N[C@H](CO)[C@H](O)c1ccc([N+](=O)[O-])cc1)C(Cl)Cl [Chloramphenicol]	sensitive	8
CC[C@H]1OC(=O)[C@H](C)[C@@H](O[C@H]2C[C@@](C)(OC)[C@@H](O)[C@H](C)O2)[C@H](C)[C@@H](O[C@@H]2O[C@H](C)C[C@H](N(C)C)[C@H]2O)[C@](C)(O)C[C@@H](C)C(=O)[C@H](C)[C@@H](O)[C@]1(C)O [Erythromycin]	sensitive	1
Gentamycin	sensitive	16
